Patent US20250250299A1, “MACROCYCLIC IMMUNOMODULATORS” (Bristol-Myers Squibb Company, priority 2022, published 2025)
Where a SMILES comes first, the peptide text is derived from it. Bridges are numbered along the chain shown (N, C = ends). [ ]: non-standard residue; d: D form. The star is where a group is joined. X1 = O=C(O)CCCCCCCCCCCCCCCCC(=O)N[C@@H](CCC(=O)NCCOCCOCCOCCOCCOCCOCCOCCOCCOCCOCCOCCn1cc(C*)nn1)C(=O)O; Phe(4-COOH) = N[C@@H](Cc1ccc(C(=O)O)cc1)C(=O)O; Phe(4-CH2NH2) = NCc1ccc(C[C@H](N)C(=O)O)cc1; Bip = N[C@@H](Cc1ccc(-c2ccccc2)cc1)C(=O)O; Phe(3-Me) = Cc1cccc(C[C@H](N)C(=O)O)c1; C12 diacid = O=C(O)CCCCCCCCCCC(=O)*; 4Pal = N[C@@H](Cc1ccncc1)C(=O)O; Cha = N[C@@H](CC1CCCCC1)C(=O)O; Carboxymethyl = O=C(O)C*; NMeA = CN[C@@H](C)C(=O)O; Nle = CCCC[C@H](N)C(=O)O; Orn = NCCC[C@H](N)C(=O)O; Dab = NCC[C@H](N)C(=O)O; Nva = CCC[C@H](N)C(=O)O; Abu = CC[C@H](N)C(=O)O

Each molecule was assayed against T1, human PD-1 (Jurkat-PD-1 cells; binding of PE-labeled human PD-L1-Ig) (Homo sapiens, UniProt Q15116) (assay: Jurkat-PD-1 Cell Binding High-Content Screening Assay). Details: not given.
T1 construct: expressed in transfected cells; host or cells: Jurkat (Jurkat-PD-1 / Jurkat-hPD-1)
Method: The ability of the compounds of formula (I) to bind to PD-1 was investigated using a Jurkat-PD-1 Cell Binding High-Content Screening Assay.
Phycoerythrin (PE) was covalently linked to the Ig epitope tag of human PD-L1-Ig and fluorescently-labeled PD-L1-Ig was used for binding studies with a Jurkat cell line over-expressing human PD-1 (Jurkat-PD-1). Briefly, 8×10^3 Jurkat-hPD-1 cells were seeded into 384 well plates in 20 μl of DIVEM supplemented with 10% fetal calf serum. 100 nl of compound was added to cells followed by incubation at 37° C. for 2 h. Then, 5 μl of PE-labeled PD-L1-Ig (20 nM final), diluted in DiVEM supplemented with 10 fetal calf serum. After 1 hour incubation, cells were fixed with […] in dPBS containing 10 µg/mL Hoechst 33342 and then washed 3× in 100 μl dPB S. Data was collected and processed using a Cell Insight NXT High Content Imager and associated software.

T1 sequence (Q15116 25-288): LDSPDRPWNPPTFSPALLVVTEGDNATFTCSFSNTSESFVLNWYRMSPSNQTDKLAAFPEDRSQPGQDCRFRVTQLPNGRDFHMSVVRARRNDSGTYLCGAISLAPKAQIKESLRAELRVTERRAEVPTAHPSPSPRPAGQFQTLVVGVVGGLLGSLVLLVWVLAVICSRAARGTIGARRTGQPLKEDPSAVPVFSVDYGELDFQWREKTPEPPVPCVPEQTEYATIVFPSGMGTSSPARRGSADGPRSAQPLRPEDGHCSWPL

SMILES | IC50 [nM]
CCCC[C@@H]1NC(=O)CSC[C@@H](C(=O)N[C@@H](CCN)C(N)=O)NC(=O)[C@H](CCC(=O)O)NC(=O)[C@H](C(C)C)NC(=O)[C@H](CC2CCCCC2)NC(=O)[C@H](CCN)NC(=O)[C@@H](CC(C)C)NC(=O)[C@H](CCCN)NC(=O)[C@H](Cc2ccc(OCc3cn(CCOCCOCCOCCOCCOCCOCCOCCOCCOCCOCCOCCNC(=O)CC[C@H](NC(=O)CCCCCCCCCCCCCCCCC(=O)O)C(=O)O)nn3)cc2)NC(=O)[C@H](Cc2ccc(-c3ccccc3)cc2)NC(=O)[C@H](Cc2ccc(C(=O)O)cc2)NC(=O)[C@H](Cc2cccc(C)c2)NC(=O)[C@H](CC(=O)O)NC(=O)[C@H](Cc2ccc(C(=O)O)cc2)NC1=O [Compound 1028] ({CH2CO}-[Nle][Phe(4-COOH)]D[Phe(3-Me)][Phe(4-COOH)][Bip]Y(X1)[Orn][dL][Dab][Cha]VEC[Dab]-NH2; thioether N-14) | 430

Same assay, conditions: Jurkat cell line over-expressing human PD-1; compound 2 h at 37° C., then PE-labeled PD-L1-Ig 20 nM final, 1 hour; read-out: Jurkat hPD1 PDL1 IC50

SMILES | IC50 [nM]
CCC[C@@H]1NC(=O)CSC[C@@H](C(=O)N[C@@H](CCN)C(N)=O)NC(=O)[C@H](CCC(=O)O)NC(=O)[C@H](C(C)C)NC(=O)[C@H](CC2CCCCC2)NC(=O)[C@H](CCN)NC(=O)[C@@H](CC(C)C)NC(=O)[C@H](CCCN)NC(=O)[C@H](Cc2ccc(OCC(=O)O)cc2)NC(=O)[C@H](Cc2ccc(-c3ccccc3)cc2)NC(=O)[C@H](Cc2ccc(OCc3cn(CCOCCOCCOCCOCCOCCOCCOCCOCCOCCOCCOCCNC(=O)CC[C@H](NC(=O)CCCCCCCCCCCCCCCCC(=O)O)C(=O)O)nn3)cc2)NC(=O)[C@H](Cc2cccc(C)c2)NC(=O)[C@H](CC(=O)O)NC(=O)[C@H](Cc2ccc(OCC(=O)O)cc2)NC1=O [Compound 1018] ({CH2CO}-[Nva]Y(Carboxymethyl)D[Phe(3-Me)]Y(X1)[Bip]Y(Carboxymethyl)[Orn][dL][Dab][Cha]VEC[Dab]-NH2; thioether N-14) | 110
Cc1cccc(C[C@@H]2NC(=O)[C@H](CC(=O)O)NC(=O)[C@H](Cc3ccc(OCC(=O)O)cc3)NC(=O)[C@H]([C@@H](C)O)NC(=O)CSC[C@@H](C(=O)N[C@@H](CCN)C(N)=O)NC(=O)[C@H](CCC(=O)O)NC(=O)[C@H](C(C)C)NC(=O)[C@H](CC3CCCCC3)NC(=O)[C@H](CCN)NC(=O)[C@@H](CC(C)C)NC(=O)[C@H](CCCN)NC(=O)[C@H](Cc3ccc(OCC(=O)O)cc3)NC(=O)[C@H](Cc3ccc(-c4ccccc4)cc3)NC(=O)[C@H](Cc3ccc(OCc4cn(CCOCCOCCOCCOCCOCCOCCOCCOCCOCCOCCOCCNC(=O)CC[C@H](NC(=O)CCCCCCCCCCCCCCCCC(=O)O)C(=O)O)nn4)cc3)NC2=O)c1 [Compound 1019] ({CH2CO}-TY(Carboxymethyl)D[Phe(3-Me)]Y(X1)[Bip]Y(Carboxymethyl)[Orn][dL][Dab][Cha]VEC[Dab]-NH2; thioether N-14) | 140
CCC[C@@H]1NC(=O)CSC[C@@H](C(=O)N[C@@H](CCN)C(N)=O)NC(=O)[C@H](CCC(=O)O)NC(=O)[C@H](C(C)C)NC(=O)[C@H](CC2CCCCC2)NC(=O)[C@H](CCN)NC(=O)[C@@H](CC(C)C)NC(=O)[C@H](CCCN)NC(=O)[C@H](Cc2ccc(C(=O)O)cc2)NC(=O)[C@H](Cc2ccc(-c3ccccc3)cc2)NC(=O)[C@H](Cc2ccc(OCc3cn(CCOCCOCCOCCOCCOCCOCCOCCOCCOCCOCCOCCNC(=O)CC[C@H](NC(=O)CCCCCCCCCCCCCCCCC(=O)O)C(=O)O)nn3)cc2)NC(=O)[C@H](Cc2cccc(C)c2)NC(=O)[C@H](CC(=O)O)NC(=O)[C@H](Cc2ccc(C(=O)O)cc2)NC1=O [Compound 1022] ({CH2CO}-[Nva][Phe(4-COOH)]D[Phe(3-Me)]Y(X1)[Bip][Phe(4-COOH)][Orn][dL][Dab][Cha]VEC[Dab]-NH2; thioether N-14) | 54
Cc1cccc(C[C@@H]2NC(=O)[C@H](CC(=O)O)NC(=O)[C@H](Cc3ccc(OCC(=O)O)cc3)NC(=O)[C@H](CCNC(=O)CCCCCCCCCCC(=O)O)NC(=O)CSC[C@@H](C(N)=O)NC(=O)[C@H]([C@@H](C)O)NC(=O)[C@H](C(C)C)NC(=O)[C@H](CC3CCCCC3)NC(=O)[C@H](CCN)NC(=O)[C@@H](CC(C)C)NC(=O)[C@H](CCCN)NC(=O)[C@H](Cc3ccc(OCC(=O)O)cc3)NC(=O)[C@H](Cc3ccc(-c4ccccc4)cc3)NC(=O)[C@H](Cc3ccc(O)cc3)NC2=O)c1 [Compound 1034] ({CH2CO}-[Dab](C12 diacid)Y(Carboxymethyl)D[Phe(3-Me)]Y[Bip]Y(Carboxymethyl)[Orn][dL][Dab][Cha]VTC-NH2; thioether N-14) | 170
Cc1cccc(C[C@@H]2NC(=O)[C@H](CC(=O)O)NC(=O)[C@H](Cc3ccc(OCC(=O)O)cc3)NC(=O)[C@H](CCCNC(=N)N)NC(=O)CSC[C@@H](C(N)=O)NC(=O)[C@H]([C@@H](C)O)NC(=O)[C@H](C(C)C)NC(=O)[C@H](CC3CCCCC3)NC(=O)[C@H](CCN)NC(=O)[C@@H](CC(C)C)NC(=O)[C@H](C)N(C)C(=O)[C@H](CCCNC(=O)CCCCCCCCCCC(=O)O)NC(=O)[C@H](Cc3ccc(-c4ccccc4)cc3)NC(=O)[C@H](Cc3ccc(O)cc3)NC2=O)c1 [Compound 1036] ({CH2CO}-RY(Carboxymethyl)D[Phe(3-Me)]Y[Bip][Orn](C12 diacid)[NMeA][dL][Dab][Cha]VTC-NH2; thioether N-14) | 130
CC(C)C[C@H]1NC(=O)[C@H](C)N(C)C(=O)[C@H](C(C)C)NC(=O)[C@H](Cc2ccc(-c3ccccc3)cc2)NC(=O)[C@H](C(C)C)NC(=O)[C@H](Cc2c[nH]c3ccccc23)NC(=O)[C@H](CC(=O)O)NC(=O)[C@H](Cc2ccncc2)NC(=O)[C@H](Cc2ccc(CNC(=O)CCCCCCCCCCC(=O)O)cc2)NC(=O)CSC[C@@H](C(N)=O)NC(=O)[C@H](CO)NC(=O)[C@H](C(C)C)NC(=O)[C@H](CC2CCCCC2)NC(=O)[C@H](CC(N)=O)NC1=O [Compound 1037] ({CH2CO}-[Phe(4-CH2NH2)](C12 diacid)[4Pal]DWV[Bip]V[NMeA][dL]N[Cha]VSC-NH2; thioether N-14) | 120

Second part, the molecule after the results:

IC50 [nM] | SMILES
96 | CCCC[C@@H]1NC(=O)CSC[C@@H](C(=O)N[C@@H](CCN)C(N)=O)NC(=O)[C@H](CCC(=O)O)NC(=O)[C@H](C(C)C)NC(=O)[C@H](CC2CCCCC2)NC(=O)[C@H](CCN)NC(=O)[C@@H](CC(C)C)NC(=O)[C@H](CCCN)NC(=O)[C@H](Cc2ccc(C(=O)O)cc2)NC(=O)[C@H](Cc2ccc(-c3ccccc3)cc2)NC(=O)[C@H](Cc2ccc(OCc3cn(CCOCCOCCOCCOCCOCCOCCOCCOCCOCCOCCOCCNC(=O)CC[C@H](NC(=O)CCCCCCCCCCCCCCCCC(=O)O)C(=O)O)nn3)cc2)NC(=O)[C@H](Cc2cccc(C)c2)NC(=O)[C@H](CC(=O)O)NC(=O)[C@H](Cc2ccc(C(=O)O)cc2)NC1=O [Compound 1020] ({CH2CO}-[Nle][Phe(4-COOH)]D[Phe(3-Me)]Y(X1)[Bip][Phe(4-COOH)][Orn][dL][Dab][Cha]VEC[Dab]-NH2; thioether N-14)
95 | CC[C@@H]1NC(=O)CSC[C@@H](C(=O)N[C@@H](CCN)C(N)=O)NC(=O)[C@H](CCC(=O)O)NC(=O)[C@H](C(C)C)NC(=O)[C@H](CC2CCCCC2)NC(=O)[C@H](CCN)NC(=O)[C@@H](CC(C)C)NC(=O)[C@H](CCCN)NC(=O)[C@H](Cc2ccc(C(=O)O)cc2)NC(=O)[C@H](Cc2ccc(-c3ccccc3)cc2)NC(=O)[C@H](Cc2ccc(OCc3cn(CCOCCOCCOCCOCCOCCOCCOCCOCCOCCOCCOCCNC(=O)CC[C@H](NC(=O)CCCCCCCCCCCCCCCCC(=O)O)C(=O)O)nn3)cc2)NC(=O)[C@H](Cc2cccc(C)c2)NC(=O)[C@H](CC(=O)O)NC(=O)[C@H](Cc2ccc(C(=O)O)cc2)NC1=O [Compound 1021] ({CH2CO}-[Abu][Phe(4-COOH)]D[Phe(3-Me)]Y(X1)[Bip][Phe(4-COOH)][Orn][dL][Dab][Cha]VEC[Dab]-NH2; thioether N-14)
99 | Cc1cccc(C[C@@H]2NC(=O)[C@H](CC(=O)O)NC(=O)[C@H](Cc3ccc(C(=O)O)cc3)NC(=O)[C@H]([C@@H](C)O)NC(=O)CSC[C@@H](C(=O)N[C@@H](CCN)C(N)=O)NC(=O)[C@H](CCC(=O)O)NC(=O)[C@H](C(C)C)NC(=O)[C@H](CC3CCCCC3)NC(=O)[C@H](CCN)NC(=O)[C@@H](CC(C)C)NC(=O)[C@H](CCCN)NC(=O)[C@H](Cc3ccc(C(=O)O)cc3)NC(=O)[C@H](Cc3ccc(-c4ccccc4)cc3)NC(=O)[C@H](Cc3ccc(OCc4cn(CCOCCOCCOCCOCCOCCOCCOCCOCCOCCOCCOCCNC(=O)CC[C@H](NC(=O)CCCCCCCCCCCCCCCCC(=O)O)C(=O)O)nn4)cc3)NC2=O)c1 [Compound 1023] ({CH2CO}-T[Phe(4-COOH)]D[Phe(3-Me)]Y(X1)[Bip][Phe(4-COOH)][Orn][dL][Dab][Cha]VEC[Dab]-NH2; thioether N-14)
400 | CCCC[C@@H]1NC(=O)CSC[C@@H](C(=O)N[C@@H](CCN)C(N)=O)NC(=O)[C@H](CCC(=O)O)NC(=O)[C@H](C(C)C)NC(=O)[C@H](CC2CCCCC2)NC(=O)[C@H](CCN)NC(=O)[C@@H](CC(C)C)NC(=O)[C@H](CCCN)NC(=O)[C@H](Cc2ccc(OCc3cn(CCOCCOCCOCCOCCOCCOCCOCCOCCOCCOCCOCCNC(=O)CC[C@H](NC(=O)CCCCCCCCCCCCCCCCC(=O)O)C(=O)O)nn3)cc2)NC(=O)[C@H](Cc2ccc(-c3ccccc3)cc2)NC(=O)[C@H](Cc2ccc(OCC(=O)O)cc2)NC(=O)[C@H](Cc2cccc(C)c2)NC(=O)[C@H](CC(=O)O)NC(=O)[C@H](Cc2ccc(OCC(=O)O)cc2)NC1=O [Compound 1024] ({CH2CO}-[Nle]Y(Carboxymethyl)D[Phe(3-Me)]Y(Carboxymethyl)[Bip]Y(X1)[Orn][dL][Dab][Cha]VEC[Dab]-NH2; thioether N-14)
